A short description of data set [1]: storage stability of crystalline form I. The data set is classed as physicochemical. The following applies: periods of up to 18 months. The source says:
The form thereby obtained is sufficiently stable to allow its storage for an extended period without particular conditions for temperature, light, humidity or oxygen levels.

Another data set has as its system central nervous system. Put plainly: pharmacological study. The source says: Neurodegenerative diseases more especially targeted are Alzheimer's disease, Parkinson's disease, Pick's disease, Korsakoff's disease, Lewy body dementias, frontal and subcortical dementias, frontotemporal dementias and vascular dementias.
The nature of data set [2]: dissolution of crystalline form I. It counts as physicochemical. The source says: Obtaining this crystalline form has the advantage of allowing especially rapid and efficient filtration and also the preparation of pharmaceutical formulations having a consistent and reproducible composition, which is especially advantageous when those formulations are intended for oral administration.

As for `Cl.NC(=O)c1ccc(OCCCN2C[C@H]3CCC[C@H]3C2)cc1` [4-{3-[cis-Hexahydrocyclopenta[c]pyrrol-2(1H)-yl]propoxy}benzamide hydrochloride], the stability on storage result in data set [1] (at 25° C. with a humidity level of 60% in a double bag of polyethylene), in data set [1] (at 30° C. with a humidity level of 65% in a double bag of polyethylene) and in data set [1] (at 30° C. with a humidity level of 85% in a double bag of polyethylene) was “very stable” in each case. Moreover, in the data set on central nervous system, the “activity on the central nervous system” value is reported as “substantial activity”. For the same compound, in data set [2], the dissolution properties result is “noteworthy properties of immediate dissolution”.

As for `NC(=O)c1ccc(OCCCN2C[C@H]3CCC[C@H]3C2)cc1` [form I of its free base, 4-{3-[cis-Hexahydrocyclopenta[c]pyrrol-2(1H)-yl]propoxy}benzamide], the “activity on the central nervous system” value in the data set on central nervous system is reported as “substantial activity”.

(Values after US8664408B2, “Synthesis process, and crystalline form of 4-{3-[cis-hexahydrocyclopenta[c]pyrrol-2(1H)-yl]proxy}benzamide hydrochloride and pharmaceutical compositions containing it” (Les Laboratoires Servier, priority 2011, dated 2014).)
